According to ChEMBL document CHEMBL4507291 (2021):

Assays:
[1] = biological target: Protein kinase C theta type (Homo sapiens) (UniProt Q04759); test: PRKCQ (PKC theta) Kinase screen; conditions: Compound concentration 1.0 uM
[2] = biological target: Acetylcholine receptor subunit alpha (Homo sapiens) (UniProt P02708); test: Inhibition of Nicotinic Acetylcholine D1, Bungarotoxin at 10 µM in the Eurofins-Panlabs radioligand binding assay (Eurofins_assay_258700); conditions: Compound concentration 10.0 uM
Acetylcholine receptor subunit alpha (Homo sapiens), sequence (P02708 whole entry, canonical isoform): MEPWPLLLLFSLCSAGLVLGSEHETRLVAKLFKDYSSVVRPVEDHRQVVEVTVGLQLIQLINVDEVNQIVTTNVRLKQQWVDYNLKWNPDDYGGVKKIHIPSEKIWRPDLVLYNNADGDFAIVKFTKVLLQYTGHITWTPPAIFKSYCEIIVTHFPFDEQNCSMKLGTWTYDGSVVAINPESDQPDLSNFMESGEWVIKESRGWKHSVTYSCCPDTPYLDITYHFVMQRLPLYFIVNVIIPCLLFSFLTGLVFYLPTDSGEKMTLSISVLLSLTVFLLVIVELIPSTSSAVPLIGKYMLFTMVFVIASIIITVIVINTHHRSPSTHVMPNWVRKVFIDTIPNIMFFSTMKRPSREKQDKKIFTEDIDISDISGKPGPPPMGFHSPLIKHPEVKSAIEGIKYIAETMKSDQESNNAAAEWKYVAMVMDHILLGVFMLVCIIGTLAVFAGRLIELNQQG

[3] = biological target: Casein kinase I isoform delta (Homo sapiens) (UniProt P48730); test: CSNK1D (CK1 delta) Kinase screen; conditions: Compound concentration 1.0 uM
Casein kinase I isoform delta (Homo sapiens), sequence (P48730 whole entry, looked up, canonical isoform): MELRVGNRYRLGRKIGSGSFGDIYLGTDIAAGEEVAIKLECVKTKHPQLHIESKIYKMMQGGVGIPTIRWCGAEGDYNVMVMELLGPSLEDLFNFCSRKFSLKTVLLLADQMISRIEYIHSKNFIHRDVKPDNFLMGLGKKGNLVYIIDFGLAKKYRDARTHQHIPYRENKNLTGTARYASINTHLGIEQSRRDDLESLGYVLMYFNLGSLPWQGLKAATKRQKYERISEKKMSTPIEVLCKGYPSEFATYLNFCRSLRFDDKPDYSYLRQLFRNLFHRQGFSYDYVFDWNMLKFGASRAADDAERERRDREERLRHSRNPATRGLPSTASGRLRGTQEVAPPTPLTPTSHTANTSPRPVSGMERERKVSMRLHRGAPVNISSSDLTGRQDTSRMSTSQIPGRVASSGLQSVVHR

[4] = biological target: Ribosomal protein S6 kinase alpha-3 (Homo sapiens) (UniProt P51812); test: RPS6KA3 (RSK2) Kinase screen; conditions: Compound concentration 1.0 uM
Ribosomal protein S6 kinase alpha-3 (Homo sapiens), sequence (P51812 whole entry): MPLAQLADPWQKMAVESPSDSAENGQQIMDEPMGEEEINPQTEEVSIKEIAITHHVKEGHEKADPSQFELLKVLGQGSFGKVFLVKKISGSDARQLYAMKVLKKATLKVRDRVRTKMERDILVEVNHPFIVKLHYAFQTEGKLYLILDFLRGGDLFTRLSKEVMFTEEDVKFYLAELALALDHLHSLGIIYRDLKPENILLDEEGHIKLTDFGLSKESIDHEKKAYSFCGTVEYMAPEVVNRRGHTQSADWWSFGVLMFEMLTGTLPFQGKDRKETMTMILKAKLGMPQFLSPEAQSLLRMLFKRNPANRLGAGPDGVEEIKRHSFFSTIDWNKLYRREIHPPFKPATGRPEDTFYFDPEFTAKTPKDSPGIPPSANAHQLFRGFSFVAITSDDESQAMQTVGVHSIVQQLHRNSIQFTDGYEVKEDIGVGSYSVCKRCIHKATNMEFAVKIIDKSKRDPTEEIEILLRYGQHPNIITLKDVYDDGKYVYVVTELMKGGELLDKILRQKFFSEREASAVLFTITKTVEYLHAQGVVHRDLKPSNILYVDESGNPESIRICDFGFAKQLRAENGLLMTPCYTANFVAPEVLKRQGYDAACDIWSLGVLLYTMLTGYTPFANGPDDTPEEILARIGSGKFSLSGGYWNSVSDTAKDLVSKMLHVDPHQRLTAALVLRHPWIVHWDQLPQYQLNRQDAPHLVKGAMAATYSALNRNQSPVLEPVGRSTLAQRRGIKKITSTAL

[5] = biological target: Tyrosine-protein kinase Fyn (Homo sapiens) (UniProt P06241); test: FYN Kinase screen; conditions: Compound concentration 1.0 uM
[6] = biological target: T1, Serine/threonine-protein kinase Sgk2 (Homo sapiens) (UniProt Q9HBY8); test: SGK2 Kinase screen; conditions: Compound concentration 1.0 uM
T1 sequence (whole entry): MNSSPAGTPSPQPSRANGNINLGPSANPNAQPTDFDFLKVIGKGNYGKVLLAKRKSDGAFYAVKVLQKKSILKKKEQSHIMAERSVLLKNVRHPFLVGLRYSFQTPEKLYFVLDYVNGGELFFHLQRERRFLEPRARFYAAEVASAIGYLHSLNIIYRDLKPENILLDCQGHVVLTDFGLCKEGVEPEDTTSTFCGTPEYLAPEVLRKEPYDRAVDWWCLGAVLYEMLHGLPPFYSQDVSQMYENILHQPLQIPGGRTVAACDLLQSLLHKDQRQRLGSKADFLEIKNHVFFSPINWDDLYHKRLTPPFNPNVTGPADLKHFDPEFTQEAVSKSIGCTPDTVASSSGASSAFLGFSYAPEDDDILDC

[7] = biological target: Phosphatidylinositol 4-phosphate 3-kinase C2 domain-containing subunit alpha (Homo sapiens) (UniProt O00443); test: PIK3C2A (PI3K-C2 alpha) Kinase screen; conditions: Compound concentration 1.0 uM
Phosphatidylinositol 4-phosphate 3-kinase C2 domain-containing subunit alpha (Homo sapiens), sequence (O00443 whole entry, the tested form may be a part): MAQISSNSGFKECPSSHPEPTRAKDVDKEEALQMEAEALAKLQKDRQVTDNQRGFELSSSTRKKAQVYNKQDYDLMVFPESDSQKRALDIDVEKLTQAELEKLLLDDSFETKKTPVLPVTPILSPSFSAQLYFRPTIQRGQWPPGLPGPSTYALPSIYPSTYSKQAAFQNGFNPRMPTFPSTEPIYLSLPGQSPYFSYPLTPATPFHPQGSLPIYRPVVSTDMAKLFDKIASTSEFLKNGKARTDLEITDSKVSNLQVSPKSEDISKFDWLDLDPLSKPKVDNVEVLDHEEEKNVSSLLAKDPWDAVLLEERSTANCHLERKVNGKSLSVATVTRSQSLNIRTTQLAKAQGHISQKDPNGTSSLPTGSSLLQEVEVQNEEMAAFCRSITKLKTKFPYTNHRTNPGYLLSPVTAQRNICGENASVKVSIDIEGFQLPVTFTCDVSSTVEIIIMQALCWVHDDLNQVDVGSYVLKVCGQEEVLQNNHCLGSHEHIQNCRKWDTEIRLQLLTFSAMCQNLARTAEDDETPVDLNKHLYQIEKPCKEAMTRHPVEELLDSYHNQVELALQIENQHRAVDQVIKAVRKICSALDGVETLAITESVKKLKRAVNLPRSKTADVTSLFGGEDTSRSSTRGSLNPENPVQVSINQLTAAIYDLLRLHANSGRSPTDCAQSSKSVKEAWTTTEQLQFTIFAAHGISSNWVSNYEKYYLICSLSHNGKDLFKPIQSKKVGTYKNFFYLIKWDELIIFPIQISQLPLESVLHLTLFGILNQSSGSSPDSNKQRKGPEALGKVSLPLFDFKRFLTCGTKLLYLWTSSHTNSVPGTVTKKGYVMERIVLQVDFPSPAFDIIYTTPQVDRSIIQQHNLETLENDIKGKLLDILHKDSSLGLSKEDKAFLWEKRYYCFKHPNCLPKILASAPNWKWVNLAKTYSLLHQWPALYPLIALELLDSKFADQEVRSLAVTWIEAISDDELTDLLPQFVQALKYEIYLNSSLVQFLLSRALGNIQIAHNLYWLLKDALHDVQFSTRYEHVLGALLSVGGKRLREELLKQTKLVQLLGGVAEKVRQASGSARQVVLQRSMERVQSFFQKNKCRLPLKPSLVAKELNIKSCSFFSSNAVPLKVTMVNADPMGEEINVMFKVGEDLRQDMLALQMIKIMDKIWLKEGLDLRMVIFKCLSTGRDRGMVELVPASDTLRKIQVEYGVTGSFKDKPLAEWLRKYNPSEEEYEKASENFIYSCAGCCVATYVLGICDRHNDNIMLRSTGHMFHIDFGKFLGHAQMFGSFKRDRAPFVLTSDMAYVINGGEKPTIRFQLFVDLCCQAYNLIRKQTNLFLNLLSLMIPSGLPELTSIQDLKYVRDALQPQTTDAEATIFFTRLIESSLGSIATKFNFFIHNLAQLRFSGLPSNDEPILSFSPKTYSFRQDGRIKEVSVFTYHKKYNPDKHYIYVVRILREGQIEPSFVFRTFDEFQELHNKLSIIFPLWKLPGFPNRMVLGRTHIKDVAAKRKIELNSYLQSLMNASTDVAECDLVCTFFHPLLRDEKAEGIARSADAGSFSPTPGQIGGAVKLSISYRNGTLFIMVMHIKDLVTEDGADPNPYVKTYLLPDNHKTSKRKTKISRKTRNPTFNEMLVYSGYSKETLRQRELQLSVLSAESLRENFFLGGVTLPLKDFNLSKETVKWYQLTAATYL

[8] = system: RAF proto-oncogene serine/threonine-protein kinase (Homo sapiens), P04049 [Y340D,Y341D]; test: RAF1 (cRAF) Y340D Y341D Kinase screen; conditions: Compound concentration 1.0 uM
[9] = biological target: T2, Serine/threonine-protein kinase Chk1 (Homo sapiens) (UniProt O14757); test: CHEK1 (CHK1) Kinase screen; conditions: Compound concentration 1.0 uM
T2 sequence (whole entry): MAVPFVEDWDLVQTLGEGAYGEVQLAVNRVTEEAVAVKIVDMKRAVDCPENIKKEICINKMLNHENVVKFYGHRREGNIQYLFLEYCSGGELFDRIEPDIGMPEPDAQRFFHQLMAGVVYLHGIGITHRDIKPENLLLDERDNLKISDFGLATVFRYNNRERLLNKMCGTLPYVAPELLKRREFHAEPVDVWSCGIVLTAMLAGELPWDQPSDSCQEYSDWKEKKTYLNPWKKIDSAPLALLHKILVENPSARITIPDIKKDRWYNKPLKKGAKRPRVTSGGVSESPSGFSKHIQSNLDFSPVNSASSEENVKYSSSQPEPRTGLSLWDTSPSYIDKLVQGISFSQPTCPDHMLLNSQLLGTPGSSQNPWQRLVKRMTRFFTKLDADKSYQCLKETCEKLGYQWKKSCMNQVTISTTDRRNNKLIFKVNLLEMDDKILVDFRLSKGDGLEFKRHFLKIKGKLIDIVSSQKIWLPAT

[10] = biological target: Ribosomal protein S6 kinase alpha-4 (Homo sapiens) (UniProt O75676); test: RPS6KA4 (MSK2) Kinase screen; conditions: Compound concentration 1.0 uM
Ribosomal protein S6 kinase alpha-4 (Homo sapiens), sequence (O75676 whole entry, looked up): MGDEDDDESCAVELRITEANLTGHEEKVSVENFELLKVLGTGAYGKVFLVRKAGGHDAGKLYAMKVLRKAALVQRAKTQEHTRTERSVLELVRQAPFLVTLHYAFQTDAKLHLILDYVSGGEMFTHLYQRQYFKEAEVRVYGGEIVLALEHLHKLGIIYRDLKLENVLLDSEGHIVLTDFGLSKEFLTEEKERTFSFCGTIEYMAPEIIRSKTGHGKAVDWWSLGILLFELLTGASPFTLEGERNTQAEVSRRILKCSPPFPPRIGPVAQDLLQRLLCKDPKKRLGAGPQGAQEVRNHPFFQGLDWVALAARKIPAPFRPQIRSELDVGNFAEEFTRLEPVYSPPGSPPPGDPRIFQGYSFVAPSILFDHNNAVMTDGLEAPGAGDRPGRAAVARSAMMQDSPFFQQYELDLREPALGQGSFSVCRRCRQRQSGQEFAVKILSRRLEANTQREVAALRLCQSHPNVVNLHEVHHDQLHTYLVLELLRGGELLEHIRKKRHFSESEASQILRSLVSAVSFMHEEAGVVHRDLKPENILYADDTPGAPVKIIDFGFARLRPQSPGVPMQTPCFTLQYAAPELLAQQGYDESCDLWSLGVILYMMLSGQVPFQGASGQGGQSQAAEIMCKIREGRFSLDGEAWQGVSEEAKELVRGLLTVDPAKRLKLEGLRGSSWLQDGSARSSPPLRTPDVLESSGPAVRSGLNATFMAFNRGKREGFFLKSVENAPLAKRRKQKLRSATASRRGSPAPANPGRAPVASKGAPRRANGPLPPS

[11] = biological target: T3, Serine/threonine-protein kinase Sgk1 (Homo sapiens) (UniProt O00141); test: SGK (SGK1) Kinase screen; conditions: Compound concentration 1.0 uM
T3 sequence (whole entry): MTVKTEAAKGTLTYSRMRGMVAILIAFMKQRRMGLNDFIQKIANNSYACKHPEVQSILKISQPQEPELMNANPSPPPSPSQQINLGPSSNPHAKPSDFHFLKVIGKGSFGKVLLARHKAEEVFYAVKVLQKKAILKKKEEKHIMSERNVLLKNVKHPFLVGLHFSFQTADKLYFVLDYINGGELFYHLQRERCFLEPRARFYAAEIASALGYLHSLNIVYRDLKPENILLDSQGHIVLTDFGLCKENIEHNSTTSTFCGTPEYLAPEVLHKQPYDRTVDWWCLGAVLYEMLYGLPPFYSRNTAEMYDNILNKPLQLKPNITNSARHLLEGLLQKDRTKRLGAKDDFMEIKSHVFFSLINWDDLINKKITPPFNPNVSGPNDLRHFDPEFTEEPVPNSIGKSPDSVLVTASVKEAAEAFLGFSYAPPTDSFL

Rattus norvegicus = species: Rattus norvegicus; test: Glutamate, NMDA, Polyamine Eurofins-Panlabs radioligand binding assay; type: protein-complex assay; design: ligand concentration 2 nM; conditions: Compound concentration 10.0 uM
[12] = biological target: T4, G protein-coupled receptor kinase 3 (Homo sapiens) (UniProt P35626); test: ADRBK2 (GRK3) Kinase screen; conditions: Compound concentration 1.0 uM
T4 sequence (whole entry): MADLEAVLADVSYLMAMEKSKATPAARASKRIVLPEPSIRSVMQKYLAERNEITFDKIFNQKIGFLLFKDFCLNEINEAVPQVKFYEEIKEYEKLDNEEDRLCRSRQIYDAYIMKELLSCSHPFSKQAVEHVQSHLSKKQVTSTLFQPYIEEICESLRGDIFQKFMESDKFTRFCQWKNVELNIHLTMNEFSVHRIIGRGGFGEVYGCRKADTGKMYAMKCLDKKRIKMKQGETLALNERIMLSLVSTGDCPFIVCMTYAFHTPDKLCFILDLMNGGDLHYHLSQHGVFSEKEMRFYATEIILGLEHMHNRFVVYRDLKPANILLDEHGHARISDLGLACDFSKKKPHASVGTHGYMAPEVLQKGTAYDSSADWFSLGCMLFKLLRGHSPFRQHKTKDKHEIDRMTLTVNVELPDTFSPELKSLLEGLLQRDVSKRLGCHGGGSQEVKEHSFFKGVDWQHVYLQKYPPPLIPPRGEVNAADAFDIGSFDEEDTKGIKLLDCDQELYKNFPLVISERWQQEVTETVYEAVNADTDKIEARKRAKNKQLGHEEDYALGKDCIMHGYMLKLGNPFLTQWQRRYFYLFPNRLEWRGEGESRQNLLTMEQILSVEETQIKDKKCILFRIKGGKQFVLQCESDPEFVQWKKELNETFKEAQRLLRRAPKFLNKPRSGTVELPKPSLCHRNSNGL

[13] = biological target: High affinity nerve growth factor receptor (Homo sapiens) (UniProt P04629); test: NTRK1 (TRKA) Kinase screen; conditions: Compound concentration 1.0 uM
[14] = biological target: Serine/threonine-protein kinase B-raf (Homo sapiens) (UniProt P15056); test: BRAF Kinase screen; conditions: Compound concentration 1.0 uM
Serine/threonine-protein kinase B-raf (Homo sapiens), sequence (P15056 whole entry): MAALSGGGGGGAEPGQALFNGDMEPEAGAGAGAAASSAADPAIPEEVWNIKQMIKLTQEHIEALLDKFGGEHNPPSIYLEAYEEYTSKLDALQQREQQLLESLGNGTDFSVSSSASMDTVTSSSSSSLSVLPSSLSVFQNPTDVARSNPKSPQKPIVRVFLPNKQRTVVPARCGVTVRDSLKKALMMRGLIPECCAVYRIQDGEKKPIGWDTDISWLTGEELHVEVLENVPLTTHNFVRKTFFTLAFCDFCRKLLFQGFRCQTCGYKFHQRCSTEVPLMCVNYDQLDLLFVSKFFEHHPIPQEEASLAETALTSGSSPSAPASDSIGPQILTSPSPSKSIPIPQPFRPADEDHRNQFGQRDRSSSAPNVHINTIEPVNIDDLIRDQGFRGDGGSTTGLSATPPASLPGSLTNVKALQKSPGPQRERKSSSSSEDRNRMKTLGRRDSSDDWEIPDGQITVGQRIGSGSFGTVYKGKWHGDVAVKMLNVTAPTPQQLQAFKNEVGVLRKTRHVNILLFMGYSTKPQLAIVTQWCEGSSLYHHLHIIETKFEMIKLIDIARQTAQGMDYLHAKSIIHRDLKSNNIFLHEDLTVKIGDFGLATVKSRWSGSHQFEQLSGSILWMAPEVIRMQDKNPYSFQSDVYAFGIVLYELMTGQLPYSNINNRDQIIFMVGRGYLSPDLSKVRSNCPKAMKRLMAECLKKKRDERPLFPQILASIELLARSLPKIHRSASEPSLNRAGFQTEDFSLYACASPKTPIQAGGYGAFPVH

Measured: inhibition

C[C@@H]1CN(c2cc(-c3n[nH]c4ccc(OC5(C)CC5)cc34)ncn2)C[C@H](C)O1 [MLi-2]
inactive: [1] 2.46% | [2] 6% | [3] 0.974% | [4] 3.91% | [5] 11.2% | [6] 1.36% | [7] -0.741% | [8] 2.98% | [9] -0.226% | [10] 7.68% | [11] -1.63% | Rattus norvegicus 19% | [12] -0.166% | [13] 0.799% | [14] 27.1%
